Test results taken from US20050143346A1, “Composition for treating cancer containing n,n-dimethylphytosphingosine” (priority 2002, published 2005).

What was measured:
B104 cell = experiment: MTT assay, apoptosis inducing effect on B104 cell; type: cell-based; conditions: FIG. 7
Procedure: (§1) This experiment was performed by MTT assay. MTT (3-[4,5-Dimethylthiazol-2-yl]-2,5-diphenyltetrazolium) is a staining reagent displaying yellow color when it is dissolved in medium, but it is discolored to violet formazan by active dehydrogenase in mitochondria of viable cell. […] HL60 cell lines were seeded to 96-well plate at appropriate concentration, and incubated in 5% CO2 incubator at 37° C. for 24 hrs. Thereafter, individual sample to be assessed on apoptosis effect, i.e. phytosphingosine, C2 phytoceramide, tetraacetylphytosphingosine, C6 phytoceramide, C8 phytoceramide, C3 ceramide, sphinganine, dimethylsphingosine and dimethylphytosphingosine was diluted with serum free RPMI. Cells were treated with […]˜50 µM of the dilutions, and incubated for 24 hrs. MTT (final concentration: 0.5 mg/ml) was loaded to the individual well. After incubating for another 3 hrs and dissolving the staining reagent with pipette, the absorbance was measured at 570 nm.
This Experiment was carried out in a manner identical to that described for example 3, except for using B104 cell to induce apoptosis.

protein kinase C(PKC) = experiment: PKC inhibition effect using epidermis cells of rat; type: cell-based; conditions: 100 μM and 400 μM; compared with other sphingolipid derivatives; FIG. 11
Procedure: The present inventors assessed an inhibitory effect of N,N-dimethylphytosphingosine on protein kinase C(PKC) using epidermis cells of rat. Epidermis cells were cultured to 2×10^7 cell/ml. N,N-dimethylphytosphingosine and other sphingolipid derivatives (100 μM and 400 μM respectively) were added, and reacted. The cells were washed with PBS and disrupted with homogenizer. The disruption of cells was centrifuged, and the supernatant was passed through DE52 column to obtain a portion containing protein kinase C. For activated PKC reaction, a tube containing 5 μl of PKC coactivation 5× buffer, PKC activation 5× buffer, PKC biotinylated peptide substrate, [32P]ATP mix respectively were prepared as a control. Also, other individual tubes containing 5 μl of PKC coactivation 5× buffer, control 5× buffer, PKC biotinylated peptide substrate, [32P]ATP mix were prepared further containing 5 μl of the relevant enzyme in each tube. The reaction was performed at 30° C. for 5 min. Thereafter, terminating solution (12.5 μl) was added to quench the reaction. The reaction solution (10 μl) was dropped on SAM2™ membrane, washed with 2 M NaCl (1×, 30 seconds), 2 M NaCl (3×, 2 min), 1% H3PO4 and 2M NaCl solution (4×, 2 min), and distilled water (2×, 30 seconds), dried and then measured isotope to assess the effect of PKC inhibition. The results were in FIG. 11. […]

E. coli = experiment: Antibacterial effect, colony counting; type: cell-based; conditions: FIG. 12
Procedure: (§2) The present inventors performed experiment using Bacillus licheniformis (Gram positive bacteria) and E. coli(Gram negative bacteria) to test an antibacterial activity of N,N-dimethylphytosphingosine. In this experiment, autoclaved LB (bactopeptone 10 g/l, yeast extracts 5 g/l, and sodium chloride 10 g/l) or TS (triptone 15 g/l, soitone 5 g/l, and sodium chloride 5 g/l) was used as culture medium, and cultured at 30° C. or 37° C. for 2-3 days. After culturing, an antibacterial capacity was measured by counting the number of cells. […] Each microbe was cultured, diluted successively with 10-fold, smeared on the medium, cultured again, and then dilution rate which formed 30-300 populations per plate medium was determined. After culturing each microbe, the culture was diluted with the determined dilution rate. At this time, 0.85% NaCl was used as a diluted solution. A sample which was prepared by above mentioned method was diluted successively with a solvent for preparing the sample. After obtaining the desired concentration, 1 ml of the diluted sample was added to 9 ml of a diluted solution of microbes, and then mixed thoroughly. After standing at 30° C. or 37° C. for 1 hr (with mixing occasionally), each 100 μl was smeared on the culture medium. After culturing under individual condition, the number of population was measured.

Bacillus licheniformis = experiment: Antibacterial effect, colony counting; type: cell-based; conditions: B. licheniformis, FIG. 12
Procedure: as §2

[1] = test system: sphingosine kinase from mouse; experiment: Inhibition of sphingosine kinase activity ([32P]ATP, sphingosine-1-phosphate formation); type: biochemical; conditions: compared with dimethylsphingosine; 37° C. for 20 min; FIG. 3
Procedure: The same experiment was performed on dimethylsphingosine to compare with the effect of dimethylphytosphingosine of the present invention. Sphingosine kinase assay buffer was prepared as follows to determine an activity of sphingosine kinase: 20 mM Tris buffer, pH 7.2, 10 mM MgCl2, 20% glycerol, 1 mM dithiothreitol, 1 mM Na3VO4, 15 mM NaF, […] leupeptin and aprotinin, 1 mM PMSF and 0.5 mM 4-deoxypyridoxine.
The reaction was 200 μl, each 50 μM dimethylsphingosine and dimethylphytosphingosine dissolved in 0.25% Triton X-100, 10 ng of sphingosine kinase from mouse and 1 mM [32P] ATP were added, and reacted at 37° C. for 20 min. After completion of the reaction, the reaction was terminated by adding 20˜50 μl of 1N HCl. Following termination, lipid was separated and purified by adding 1 ml of chloroform, and dried under nitrogen gas. An inhibitory effect against sphingosine kinase was found by measuring isotope with scintillation counter and then determining produced sphingosine-1-phosphate. In the graph, indicated in FIG. 3, Y axis represents CPM and X axis represents concentration (μM).

LLC-PK1 cell = experiment: MTT assay, apoptosis inducing effect on LLC-PK1 cell; type: cell-based; conditions: FIG. 6
Procedure: as §1
This Experiment was carried out in an identical manner to that described for example 3, except for using LLC-PK1 cell to induce apoptosis.

HL60 cell = experiment: MTT assay, apoptosis inducing effect on HL60 cell; type: cell-based; conditions: 0.5 M˜[…], 24 hrs, FIG. 4
Procedure: An apoptosis inducing effect of N,N-dimethylphytosphingosine was assayed. Anti-cancer effect is expressed through various signal transduction pathway depending on working mechanism and chemical structure, but consequently give rise to apoptosis which allows cells to be killed.
as §1

MDA-MB-231 cell = experiment: MTT assay, apoptosis inducing effect on MDA-MB-231 cell; type: cell-based; conditions: FIG. 8
Procedure: as §1
This Experiment was carried out in an identical manner to that described for example 3, except for using MDA-MB-231 cell to induce apoptosis.

HL60 cells = experiment: DNA fragmentation by agarose gel electrophoresis; type: cell-based; conditions: 24 hrs, FIG. 9
Procedure: DNA fragmentation as a representative characteristic of apoptosis was assessed at a level of concentration including cytotoxicity. Apoptosis is a programmed cell death, characterized by complicate biological characteristics including morphological changes, chromatin condensation, a formation of apoptotic body and the like. This experiment was performed to assess DNA fragmentation among them. HL60 cells were seeded (1×10^7 cell/10 ml), and incubated in 5% CO2 incubator at 37° C. for 24 hrs. Then, N,N-dimethylphytosphingosine and control substances (at concentration indicated in FIG. 9) was added and incubated for 24 hrs. All of substances were dissolved in EtOH. Cells were recovered by centrifugation, and then cell membrane was disrupted by adding lysis buffer (5 mM Tris-HCl (PH 7.4), 20 mM EDTA, 0.5% Triton X-100). After centrifuging at 12,000 rpm for 10 min, supernatant in which DNA fragments were dissolved was recovered. To the supernatant was added equivalent amount of phenol, vortexed, centrifuged at 12,000 rpm for 10 min, and then supernatant was recovered carefully. DNA extraction with phenol:chloroform:isoamylalcohol (25:24:1) or chloroform was performed in a same manner as the method with phenol. To the supernatant which was treated by various solvents was added a solution of 0.3 M sodium acetate (pH 5.2) in EtOH, and precipitated in a freezer at −20° C. for 24 hrs. After centrifuging at 12,000 rpm for 10 min, supernatant was decanted to obtain DNA pellets. 70% EtOH was added to the remaining DNA pellets to wash them. Again, after centrifuging, supernatant was discarded, the remaining DNA fragments were dissolved in TE buffer. To remove RNA in addition-to DNA fragments, […] of 0.5 mg/ml RNAse was added, and reacted at 37° C. for 30 min. DNA fragmentation was found by 1.2% agarose gel electrophoresis. […] N-acylsphingosine was known as apoptosis inducing substance, and DNA fragmentation was one example of such effects. […] Accordingly, it is considered that N,N-dimethylphytosphingosine of the present invention has excellent apoptosis inducing effect compared to N-acylsphingosine. It was not observed that CLA ceramide belonging to sphingosineceramide induced DNA fragmentation.
The following is the meaning of the symbols used in FIG. 9. • SM: DNA size marker • EtOH: Ethanol • 1: DMPS 12.5 μM • 2: DMPS 25.0 μM • 3: DMPS 50.0 μM • 4: C2 ceramide 25.0 μM • 5: C2 ceramide 50.0 μM • 6: CLA ceramide 25.0 μM • 7: CLA ceramide 50.0 μM

HaCaT cell = experiment: MTT assay, apoptosis inducing effect on HaCaT cell; type: cell-based; conditions: FIG. 5
Procedure: as §1
This Experiment was carried out in an identical manner to that described for example 3, except for using HaCaT cell to induce apoptosis.

[2] = test system: histone component presented in nucleosome of cytoplasm of cell lysates; experiment: Anti-histone antibody binding ELISA (mono- or oligosome detection); type: cell-based; conditions: FIG. 10
Description: This experiment was based on the theory of ELISA. Briefly, Mono- or oligosome of degraded nucleic acid in cytoplasm can be detected by means of monoclonal antibodies which are specific for histones (H2A, H2B, H3 and H4) and single-stranded or double-stranded DNA. Cells which apoptosis was induced activated Ca2+ and Mg2+-dependent endonuclease, and the enzyme degraded adjacent double stranded DNA to form mono- or oligosome. On this account, histone which had been compactly bound to the DNA in nucleus was exposed to outside.
First, anti-histone antibody was immobilized to 96 well plate. Coating solution was added, and reaction was performed at ambient temperature for 1 hr. Then, each sample was treated to obtain cell lysates, and histone component presented in nucleosome of cytoplasm of cell lysates was adhered to the 96 well plate to which anti-histone antibody was immobilized. Above procedure was performed at 15˜25° C. for 90 min. Then, anti-DNA-peroxidase (POD) was bound to DNA part of nucleosome of cytoplasm. This procedure was performed at ambient temperature for 90 min. Unbound peroxidase conjugate was washed, ABTS(2,2′-azino-di-[3-ethylbenzthiazoline sulfonate]) was added as an substrate, reacted for 10˜20 min, and then absorbance was measured at 405 nm.

CCCCCCCCCCCCCCC(O)C(O)C(CO)N(C)C (centres unmarked) [N,N-dimethylphytosphingosine]
cell death (MTT assay) (B104 cell): induced cell death
cell death effect compared to dimethylsphingosine (B104 cell): far superior to that of dimethylsphingosine
inhibitory effect on PKC (protein kinase C(PKC)): stronger inhibitory effect than any other compound
amount of colonies reduced to (E. coli; 1 μg/ml): 40%
number of colonies (E. coli): reduced
amount of colonies reduced to (Bacillus licheniformis; 1 μg/ml): 40%
number of colonies (Bacillus licheniformis): reduced
inhibitory effect against sphingosine kinase (produced sphingosine-1-phosphate, CPM) [1]: more strong inhibitory effect than that of dimethylsphingosine
cell death (MTT assay) (LLC-PK1 cell): induced cell death
cell death effect compared to dimethylsphingosine (LLC-PK1 cell): far superior to that of dimethylsphingosine
cell death (MTT assay) (HL60 cell): induced cell death
cell death (MTT assay) (MDA-MB-231 cell): induced cell death
cell death effect compared to dimethylsphingosine (MDA-MB-231 cell): far superior to that of dimethylsphingosine
DNA fragmentation (electrophoresis), result in words (HL60 cells; DMPS 12.5-50.0 μM, C2 ceramide and CLA ceramide 25.0 and 50.0 μM): obvious ladder-like DNA fragmentation at a lower concentration compared to C2-ceramide
concentration at which DNA fragmentation was induced (HL60 cells): 25.0 µM
degree of DNA fragmentation compared to C2 ceramide (HL60 cells): stronger than C2 ceramide
cell death (MTT assay) (HaCaT cell): induced cell death
cell death effect compared to dimethylsphingosine (HaCaT cell): far superior to that of dimethylsphingosine
absorbance (A405 nm-A490 nm), anti-histone antibody binding [2]: higher absorbance (A405 nm-A490 nm) than other controls

CCCCCCCCCCCCC/C=C/[C@@H](O)[C@H](CO)NC(C)=O [C2-ceramide, N-acylsphingosine, reference compound]
concentration at which DNA fragmentation was induced (HL60 cells): 25.0 µM
